The data set is described as follows: Binding affinity to beta cyclodextrin.
With `Nc1ccc(S(=O)(=O)Nc2ccnn2-c2ccccc2)cc1` [SULFAPHENAZOLE], the “log Ks” value came to 2.35.
In the case of `O=C(O)/C=C/c1cccc(O)c1`, the “log Ks” value is given as 2.56.
Consider `CC#N` [ACETONITRILE], for which the “log Ks” value is -0.27.
Regarding `CCOc1ccc(OC(C)=O)cc1`, the “log Ks” value worked out at 2.54.
Take `CCC(C)c1ccc(O)cc1` (configuration not stated): the “log Ks” value is on record as 4.18.
As to `C[C@]12C[C@H](O)[C@H]3[C@@H](CCC4=CC(=O)CC[C@@]43C)[C@@H]1CC[C@@H]2C(=O)CO` [CORTICOSTERONE], the “log Ks” value was found to be 3.85.
For the molecule `OCc1ccccc1` [BENZYL ALCOHOL], the “log Ks” value turned out to be 1.71.
On to `CCOc1ccc(O)cc1` [1-hydroxy-4-ethoxybenzene], for which the “log Ks” value is listed as 2.33.
With `Nc1ccc([N+](=O)[O-])cc1` [4-NITROANILINE], the “log Ks” value was found to be 2.48.
Take `O=[N+]([O-])c1ccc(O)cc1` [P-NITROPHENOL]: the “log Ks” value is on record as 2.39.
On to `Nc1ccccc1` [ANILINE], for which the “log Ks” value came to 1.6.
For `Oc1cccc(Br)c1`, the “log Ks” value is 2.51.
Next, `NC(=O)CCC/N=C(\c1ccc(Cl)cc1)c1cc(F)ccc1O` [PROGABIDE]: 2.53; `c1ccc2c(c1)oc1ccccc12` [DIBENZOFURAN]: 2.97.
Next, `C[C@]12CCC(=O)C=C1CC[C@@H]1[C@@H]2[C@@H](O)C[C@@]2(C)[C@H]1CC[C@]2(O)C(=O)CO` [HYDROCORTISONE]: 3.6; `O=C(O)c1ccccc1Nc1ccccc1` [FENAMIC ACID]: 2.89.
The figure for `CCC(C)O` (configuration not stated) [BUTANOL] is 1.19; for `c1ccc2c(c1)sc1ccccc12` [DIBENZOTHIOPHENE] it is 3.48.
`O=[N+]([O-])c1ccc(Cl)cc1`: the “log Ks” value is 2.15.
Regarding `CCC1(C2=CCCCC2)C(=O)NC(=O)NC1=O` [CYCLOBARBITAL], the “log Ks” value came to 2.71.
Consider `CCc1ccc(O)cc1`, for which the “log Ks” value is given as 2.69.
Next, `NS(=O)(=O)c1cc2c(cc1C(F)(F)F)NC(Cc1ccccc1)NS2(=O)=O` (configuration not stated) [BENDROFLUMETHIAZIDE]: 1.9.
Turning to `Cc1cccc(O)c1` [METACRESOL], the “log Ks” value amounted to 1.98.
Take `O=C(O)c1ccc([N+](=O)[O-])cc1` [4-NITROBENZOIC ACID]: the “log Ks” value is 2.34.
Next, `COCCO` [2-METHOXYETHANOL]: 0.22; `CC(=O)OCC(=O)[C@@]1(O)CC[C@H]2[C@@H]3CCC4=CC(=O)CC[C@]4(C)[C@H]3[C@@H](O)C[C@@]21C` [HYDROCORTISONE ACETATE]: 3.51; `CC(C)(C)CO`: 2.71.
On to `CC(=O)c1ccc(O)cc1` [4-HYDROXYACETOPHENONE], for which the “log Ks” value is listed as 2.18.
Turning to `O=C(O)c1ccc(O)cc1` [PARABEN], the “log Ks” value stood at 2.2.
Turning to `CC(C)C(C)O` (configuration not stated), the “log Ks” value is 1.92.
For the molecule `COc1ccc(OC(C)=O)cc1`, the “log Ks” value stood at 2.45.
With `c1ccc2c(c1)Sc1ccccc1S2`, the “log Ks” value was found to be 3.57.
For `c1ccc2c(c1)Cc1ccccc1O2` [XANTHENE], the “log Ks” value was determined as 2.71.
On to `C[C@]12CCC(=O)C=C1CC[C@@H]1[C@@H]2C(=O)C[C@@]2(C)[C@H]1CC[C@]2(O)C(=O)CO` [CORTISONE], for which the “log Ks” value is given as 3.35.
In the case of `CCC1(c2ccccc2)C(=O)NC(=O)NC1=O` [PHENOBARBITAL], the “log Ks” value worked out at 3.22.
With `OC1CCCCC1` [CYCLOHEXANOL], the “log Ks” value was found to be 2.67.
On to `Cc1cccc(/C=C/C(=O)O)c1`, for which the “log Ks” value was found to be 2.93.
Consider `C[C@]12C=CC(=O)C=C1CC[C@@H]1[C@@H]2[C@@H](O)C[C@@]2(C)[C@H]1CC[C@]2(O)C(=O)CO` [PREDNISOLONE], for which the “log Ks” value stood at 3.56.
With `CCCCCCC(C)O` (configuration not stated), the “log Ks” value turned out to be 3.13.
Take `CCCC(C)(C)O`: the “log Ks” value was determined as 1.99.
The figure for `CC(=O)Oc1ccc(F)cc1` is 2.11; for `CC(=O)Oc1cccc(I)c1` it is 3.07.
In the case of `CCCCOC(=O)c1ccc(O)cc1` [BUTYLPARABEN], the “log Ks” value is reported as 3.39.
On to `CCCCc1ccc(OC(C)=O)cc1`, for which the “log Ks” value is reported as 3.62.
Take `c1ccc2scnc2c1` [BENZO[D]THIAZOLE]: the “log Ks” value was 2.38.
Consider `COc1cc(NS(=O)(=O)c2ccc(N)cc2)nc(C)n1` [SULFAMETOMIDINE], for which the “log Ks” value stood at 2.33.
On to `CCC(C)CO` (configuration not stated), for which the “log Ks” value is on record as 2.08.
For the molecule `CCCCCCCO` [1-HEPTANOL], the “log Ks” value was determined as 2.85.
Consider `c1ccc2sccc2c1` [BENZOTHIOPHENE], for which the “log Ks” value stood at 3.23.
Turning to `O=C(O)CCC(=O)c1ccc(-c2ccccc2)cc1` [FENBUFEN], the “log Ks” value was determined as 2.63.
For `CCCCn1ccnc1`, the “log Ks” value came out at 2.19.
In the case of `Oc1ccccc1` [PHENOL], the “log Ks” value came to 1.98.
Turning to `CC(C)CO` [ISOBUTANOL], the “log Ks” value is on record as 1.62.
As to `C(=C\c1ccccc1)/CN1CCN(C(c2ccccc2)c2ccccc2)CC1` [CINNARIZINE], the “log Ks” value is 3.64.
Take `CC(=O)Oc1cccc(C#N)c1`: the “log Ks” value is 1.49.
`CCCCc1cccc(OC(C)=O)c1`: the “log Ks” value amounted to 3.66.
As to `Nc1ccc(S(=O)(=O)Nc2ccccn2)cc1` [SULFAPYRIDINE], the “log Ks” value was 2.7.
The figure for `CCc1cccc(O)c1` is 2.6.
Take `OC1CCCCCCC1` [CYCLOOCTANOL]: the “log Ks” value turned out to be 3.3.
Turning to `CCCCCc1ccc(OC(C)=O)cc1`, the “log Ks” value turned out to be 3.8.
Turning to `ClC(Cl)Cl` [CHLOROFORM], the “log Ks” value turned out to be 1.43.
As for `CCc1cccc(OC(C)=O)c1`, the “log Ks” value was 2.68.
As to `CC(C)c1cccc(O)c1`, the “log Ks” value is listed as 3.44.
The figure for `CCCCc1cccc(O)c1` is 3.76; for `CCCc1ccc(O)cc1` it is 3.55; for `C1CCOC1` [TETRAHYDROFURAN] it is 1.47.
Turning to `CCOc1cccc(O)c1` [1-hydroxy-3-ethoxybenzene], the “log Ks” value is recorded as 2.35.
As to `CC(=O)Oc1ccc([N+](=O)[O-])cc1` [4-NITROPHENYL ACETATE], the “log Ks” value was determined as 2.13.
The figure for `CC(=O)Oc1ccc(C)cc1` is 2.49.
As for `CCCCCCCCO` [OCTANOL], the “log Ks” value was determined as 3.17.
The figure for `C[C@@H]1C[C@H]2[C@@H]3C[C@H](F)C4=CC(=O)C=C[C@]4(C)[C@H]3[C@@H](O)C[C@]2(C)[C@@]1(O)C(=O)CO` [PARAMETHASONE] is 3.4; for `CC(C)=O` [ACETONE] it is 0.42; for `CNc1ccccc1` it is 2.12.
With `CCC(C)(O)CC`, the “log Ks” value is given as 2.15.
Next, `C[C@H](CCC(=O)O)[C@H]1CC[C@H]2[C@@H]3[C@@H](O)C[C@@H]4C[C@H](O)CC[C@]4(C)[C@H]3CC[C@]12C` [URSODIOL]: 4.51; `c1ccc2nc3ccccc3nc2c1` [PHENAZINE]: 2.41; `ClCc1ccccc1` [(CHLOROMETHYL)BENZENE]: 2.45.
In the case of `Cc1ccc(O)cc1` [p-CRESOL], the “log Ks” value is 2.4.
For the molecule `c1ccc2c(c1)cnc1ccccc12` [PHENANTHRIDINE], the “log Ks” value amounted to 2.57.
The figure for `Brc1ccccc1` [BROMOBENZENE] is 2.5.
Regarding `c1ccc2nc3ccccc3cc2c1` [ACRIDINE], the “log Ks” value is recorded as 2.33.
The figure for `Fc1ccccc1` [FLUOROBENZENE] is 1.96; for `CCC1(c2ccccc2)C(=O)NC(=O)N(C)C1=O` (configuration not stated) [MEPHOBARBITAL] it is 3.16.
Consider `Oc1ccc(I)cc1`, for which the “log Ks” value is 2.98.
With `CCCCC[C@H](O)/C=C/[C@@H]1[C@H]2C/C(=C/CCCC(=O)O)O[C@H]2C[C@H]1O` [EPOPROSTENOL], the “log Ks” value is 2.94.
For `CC1=CC(=O)c2ccccc2C1=O` [MENADIONE], the “log Ks” value was determined as 2.27.
For the molecule `CC(=O)c1ccccc1` [ACETOPHENONE], the “log Ks” value is reported as 2.27.
As for `c1ccccc1` [BENZENE], the “log Ks” value came to 2.23.
The figure for `Brc1ccc(Br)cc1` is 2.97; for `CCCCOC(=O)c1ccc(N)cc1` [BUTAMBEN] it is 3.19.
On to `CC(C)(C)c1cccc(O)c1`, for which the “log Ks” value was found to be 4.41.
The figure for `Cc1ccc(C)cc1` [P-XYLENE] is 2.38; for `Oc1ccc(F)cc1` it is 1.73; for `CCc1ccc(OC(C)=O)cc1` it is 2.83.
With `COC1=CC(=O)C[C@@H](C)[C@]12Oc1c(Cl)c(OC)cc(OC)c1C2=O` [GRISEOFULVIN], the “log Ks” value worked out at 1.47.
Turning to `c1ccc2ncccc2c1` [QUINOLINE], the “log Ks” value is 2.12.
Consider `NS(=O)(=O)c1cc2c(cc1Cl)NCNS2(=O)=O` [HYDROCHLOROTHIAZIDE], for which the “log Ks” value stood at 1.76.
Regarding `c1ccc2c(c1)Nc1ccccc1O2` [PHENOXAZINE], the “log Ks” value was 2.69.
The figure for `CCCc1cccc(O)c1` is 3.28; for `c1ccc(Cn2ccnc2)cc1` [BENZYLIMIDAZOLE] it is 2.61; for `CC(=O)S[C@@H]1CC2=CC(=O)CC[C@]2(C)[C@H]2CC[C@@]3(C)[C@@H](CC[C@@]34CCC(=O)O4)[C@H]12` [SPIRONOLACTONE] it is 4.44.
As for `CCOC(=O)c1ccc(N)cc1` [BENZOCAINE], the “log Ks” value was determined as 2.69.
The figure for `CN1CCN=C(c2ccccc2)c2cc(Cl)ccc21` [MEDAZEPAM] is 2.4; for `O=C(O)c1ccccc1Nc1cccc(C(F)(F)F)c1` [FLUFENAMIC ACID] it is 3.1.
Turning to `C#Cc1ccccc1`, the “log Ks” value came out at 2.36.
Regarding `COc1ccccc1` [ANISOLE], the “log Ks” value is on record as 2.32.
Take `CCCC(C)O` (configuration not stated) [2-PENTANOL]: the “log Ks” value was 1.49.
As to `N#Cc1ccccc1` [BENZONITRILE], the “log Ks” value came to 2.23.
On to `Ic1ccccc1` [IODOBENZENE], for which the “log Ks” value stood at 2.93.
Take `Cc1cccc(N(C)C(=S)Oc2ccc3ccccc3c2)c1` [TOLNAFTATE]: the “log Ks” value was determined as 3.83.
With `Oc1cccc(F)c1`, the “log Ks” value was found to be 1.7.
In the case of `CCOC(=O)c1ccc(O)cc1` [ETHYLPARABEN], the “log Ks” value was found to be 3.01.

For the origin of these results see ChEMBL document CHEMBL1140846, “Convenient QSAR model for predicting the complexation of structurally diverse compounds with beta-cyclodextrins” (Bioorg Med Chem, 2009).
